Consider ten molecules from paper PMC6102140, “Structural insight into the human mitochondrial tRNA purine N1-methyltransferase and ribonuclease P complexes” (The Journal of Biological Chemistry, 2018).

Data set [1] has as its target T1, MRPP1ΔMTS–MRPP2 complex (SDR activity of MRPP2) (Homo sapiens, UniProt Q99714).
T1 construct: gene HSD17B10; co-expressed in E. coli; His-tagged mature MRPP1 (40-403) and untagged full-length MRPP2; 2:4 complex, 194 kDa by SEC-MALS; with tRNA methyltransferase 10 homolog C
T1 sequence (Q99714 2-261): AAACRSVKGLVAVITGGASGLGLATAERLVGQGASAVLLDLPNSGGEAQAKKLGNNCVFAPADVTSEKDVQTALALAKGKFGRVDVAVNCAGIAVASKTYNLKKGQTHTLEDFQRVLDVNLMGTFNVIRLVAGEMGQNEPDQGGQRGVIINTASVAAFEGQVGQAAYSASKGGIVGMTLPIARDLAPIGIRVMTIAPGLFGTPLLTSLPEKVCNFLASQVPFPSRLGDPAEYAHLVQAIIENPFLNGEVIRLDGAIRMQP
T1 sequence (Q7L0Y3 40-403 partner): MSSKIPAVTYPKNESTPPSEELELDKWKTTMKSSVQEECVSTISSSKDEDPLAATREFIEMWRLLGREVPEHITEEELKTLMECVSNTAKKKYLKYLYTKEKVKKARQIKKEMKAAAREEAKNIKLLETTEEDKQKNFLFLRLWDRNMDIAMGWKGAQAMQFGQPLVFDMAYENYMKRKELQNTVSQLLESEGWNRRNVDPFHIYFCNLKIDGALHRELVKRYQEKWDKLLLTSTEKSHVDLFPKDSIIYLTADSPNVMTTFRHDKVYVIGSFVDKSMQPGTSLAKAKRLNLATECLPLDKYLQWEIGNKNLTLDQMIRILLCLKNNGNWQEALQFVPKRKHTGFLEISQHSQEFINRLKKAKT
In words: differential scanning fluorimetry. The class given is binding. To be noted: pH 7.5, 150 mM NaCl.

For data set [2], the target named is MRPP1N (N domain of MRPP1), expressed alone (human) (UniProt Q7L0Y3). The experiment in a line: SEC; analytical SEC of single proteins, Superdex S200 10/300 GL (or KW403-4F), apparent mass from standards of known Mr, n = 3. On the technique in general: Size exclusion chromatography separates by hydrodynamic size, large species first.
In data set [3] the target is T2, MRPP1MT+C(Δ202) (Homo sapiens, UniProt Q7L0Y3).
T2 construct: gene TRMT10C; methyltransferase domain with C extension, residues 203-403, N-terminal His6 vector, E. coli; residues 380-403 disordered; monomer
T2 sequence (Q7L0Y3 203-403): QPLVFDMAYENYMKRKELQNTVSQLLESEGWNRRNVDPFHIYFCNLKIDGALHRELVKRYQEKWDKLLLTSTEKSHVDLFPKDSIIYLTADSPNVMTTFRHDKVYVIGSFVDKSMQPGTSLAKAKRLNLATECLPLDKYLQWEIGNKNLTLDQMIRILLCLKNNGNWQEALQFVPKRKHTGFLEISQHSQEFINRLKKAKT
In words: X-ray crystal structure, […] Å. To be noted: co-crystallised with SAM, 4 °C. Type of data set: binding.

The target of data set [4] is T3, MRPP1ΔMTS (Homo sapiens, UniProt Q7L0Y3).
T3 construct: gene TRMT10C; mature protein without mitochondrial targeting signal, residues 40-403, N-terminal His6 vector, E. coli; monomer/dimer mixture
T3 sequence (Q7L0Y3 40-403): T1 sequence (Q7L0Y3 40-403 partner)
In words: differential scanning fluorimetry. Type of data set: binding. The following applies: 7.5 mM SAM; pH 7.5, 150 mM NaCl. For orientation: In DSF a fluorescence change marks the thermal transition of the protein.

For data set [5], the target named is T4, MRPP1MT+C(Δ194) (Homo sapiens, UniProt Q7L0Y3).
T4 construct: gene TRMT10C; methyltransferase domain with C extension, residues 195-403, N-terminal His6 vector, E. coli; monomer
T4 sequence (Q7L0Y3 195-403): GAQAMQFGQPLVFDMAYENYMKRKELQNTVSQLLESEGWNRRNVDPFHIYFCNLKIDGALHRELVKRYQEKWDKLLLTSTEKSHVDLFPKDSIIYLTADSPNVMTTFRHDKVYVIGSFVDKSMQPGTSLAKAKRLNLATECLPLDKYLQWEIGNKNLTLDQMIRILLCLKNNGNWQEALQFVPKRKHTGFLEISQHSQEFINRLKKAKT
In words: differential scanning fluorimetry. The class given is binding. The following applies: pH 7.5, 150 mM NaCl.

The target of data set [6] is T5, MRPP1ΔMTS–MRPP2 complex (SAM site / MTase activity of MRPP1) (Homo sapiens, UniProt Q7L0Y3).
T5 construct: gene TRMT10C; co-expressed in E. coli; His-tagged mature MRPP1 (40-403) and untagged full-length MRPP2; 2:4 complex, 194 kDa by SEC-MALS; with 3-hydroxyacyl-CoA dehydrogenase type-2
T5 sequence (Q7L0Y3 40-403): T1 sequence (Q7L0Y3 40-403 partner)
T5 sequence (Q99714 2-261 partner): T1 sequence (Q99714 2-261)
In words: differential scanning fluorimetry. The class given is binding. The following applies: pH 7.5, 150 mM NaCl.

Substrate in data set [7]: CC(=O)[C@H]1CC[C@H]2[C@@H]3CC[C@H]4C[C@H](O)CC[C@]4(C)[C@H]3CC[C@]12C
In words: 3alpha-HSD (SDR) activity, fluorescence, Michaelis-Menten fit. Type of data set: biochemical, Homo sapiens. To be noted: MRPP2 alone. From the text:
3alpha-HSD (SDR) activity, fluorescence, Michaelis-Menten fit on MRPP2 | measured using the neurosteroid allopregnanolone as MRPP2 substrate

Substrate in data set [8]: CC(=O)[C@H]1CC[C@H]2[C@@H]3CC[C@H]4C[C@H](O)CC[C@]4(C)[C@H]3CC[C@]12C
The description is as above. Type of data set: biochemical, Homo sapiens. The following applies: in complex with MRPP1ΔMTS.

Data set [9] concerns the molecule itself. In words: SEC; analytical SEC of single proteins, Superdex S200 10/300 GL (or KW403-4F), apparent mass from standards of known Mr, n = 3.
For data set [10], the target named is T6, MRPP2, untagged, co-expressed with His-tagged MRPP1 constructs (bicistronic plasmid) (human), Q99714.
T6 chain: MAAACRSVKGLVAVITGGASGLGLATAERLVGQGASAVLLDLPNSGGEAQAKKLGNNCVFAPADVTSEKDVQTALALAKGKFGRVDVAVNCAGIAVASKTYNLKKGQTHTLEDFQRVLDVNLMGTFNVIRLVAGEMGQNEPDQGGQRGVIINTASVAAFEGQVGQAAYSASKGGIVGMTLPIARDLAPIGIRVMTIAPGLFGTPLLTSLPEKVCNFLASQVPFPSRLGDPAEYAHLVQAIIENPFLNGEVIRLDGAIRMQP
In words: SEC-SAXS; KW403-4F column in line with SAXS, 4.5 mg/ml; 50 mM sodium phosphate pH 7.4, 300 mM NaCl, 5% glycerol, 1% sucrose, 0.5 mM TCEP (for MRPP1, MRPP2 and MRPP1–MRPP2; buffer for MRPP3 alone not told); no tRNA. The following applies: remark: other sources report otherwise.

Data set [11] deals with T7, MRPP2 (HSD17B10), expressed alone, tag removed (human), Q99714.
T7 chain: T6 chain
Described as above. The following applies: remark: other sources report otherwise.

The mark [12] stands for this setting: ligand concentration not in text, text says MTase domain, construct boundary not stated.

For the molecule `NC(=O)C1=CN([C@@H]2O[C@H](COP(=O)(O)OP(=O)(O)OC[C@H]3O[C@@H](n4cnc5c(N)ncnc54)[C@H](O)[C@@H]3O)[C@@H](O)[C@H]2O)C=CC1` [NADH], the Tm shift result in [1] was “retained their ability to bind the cofactor (NADH) and methyl donor (SAM)”.
With “MRPP1N (N domain of MRPP1), expressed alone (from UniProt Q7L0Y3 40-203) (domain or fragment)”, the stoichiometry N in [2] is 2.
On to `C[S+](CC[C@H](N)C(=O)O)C[C@H]1O[C@@H](n2cnc3c(N)ncnc32)[C@H](O)[C@@H]1O` (stereo partly drawn) [SAM, S-adenosyl-L-methionine], for which the “X-ray crystal structure, 1.96 Å” value in data set [3] is listed as “Each MRPP1MT subunit is bound by a SAM molecule”. Further, the Tm shift in data set [4] is 6.04 ± 0.09 °C; in data set [5] (7.5 mM SAM) it was 9.75 ± 0.48 °C; in data set [6] it was “retained their ability to bind the cofactor (NADH) and methyl donor (SAM)”.
With `Nc1ncnc2c1ncn2[C@@H]1O[C@H](CSCC[C@H](N)C(=O)O)[C@@H](O)[C@H]1O` [S-adenosyl-homocysteine], the Tm shift in data set [5] (setting [12]) was found to be 5.00 ± 0.18 °C.
For the molecule `Nc1ncnc2c1ncn2[C@@H]1O[C@H](CO)[C@@H](OP(=O)(O)O)[C@H]1O` [3′-AMP], the Tm shift in [5] (setting [12]) was 3.65 ± 0.16 °C.

B1: MRPP2 (Homo sapiens) (protein)
chain: T1 sequence (Q99714 2-261)
notes: full-length MRPP2, N-terminal His6 (pNIC28-Bsa4), TEV treated, E. coli; homotetramer
B1: the Km in [7] was 7.70 ± 0.50 µM.

B2: MRPP1ΔMTS–MRPP2 complex (SDR activity of MRPP2) (Homo sapiens) (protein)
chain: T1 sequence (Q99714 2-261)
notes: co-expressed in E. coli; His-tagged mature MRPP1 (40-403) and untagged full-length MRPP2; 2:4 complex, 194 kDa by SEC-MALS; with tRNA methyltransferase 10 homolog C
With B2, the Km in data set [8] amounted to 3.40 ± 0.40 µM.

B3: MRPP1_(ΔMTS) (mature mitochondrial RNase P protein 1, aa 40–403), expressed alone (natural protein, human, UniProt Q7L0Y3 40-403, looked up)
chain: T1 sequence (Q7L0Y3 40-403 partner)
notes: human MRPP1 (TRMT10C/RG9MTD1), 403 aa precursor; residues 40-403, without the mitochondrial targeting signal (1-39); In solution a mixture of monomer and dimer; also called TRMT10C; RG9MTD1; source: E. coli BL21(DE3)-R3-pRARE2, purified
For B3, the “stoichiometry N” value in [9] came out at 2.

B4: MRPP2, untagged, co-expressed with His-tagged MRPP1 constructs (bicistronic plasmid), Q99714 1-261 (natural protein)
chain: T6 chain
In data set [10], B4 returned a stoichiometry N of 4.

B5: MRPP2 (HSD17B10), expressed alone, tag removed, Q99714 1-261 (natural protein)
chain: T6 chain
As to B5, in data set [11], the stoichiometry N was 4.

The term stoichiometry N denotes a count of units in the complex or per binding partner. Broadly, the Km is the concentration of substrate that gives half-maximal velocity.
